Entries after “also recorded” stand apart in the source; their conditions may differ.

This is an account of results in US12194014B2, “Platinum-based amphiphile prodrugs” (NANOMED HOLDINGS PTY LTD, priority 2018, dated 2025).

Data set [1] concerns CFPAC-1 pancreatic cell line. Nature of the data set: Cell proliferation and cytotoxicity assay (MTS or crystal violet). The following applies: CFPAC-1, 72 hours; prodrug tested as nanoparticles. It counts as cell-based, human. The protocol:
(§1) Cell proliferation and cytotoxicity assays were performed in different cell lines by MTS (3-(4,5-dimethylthiazol-2-yl)-5-(3-carboxymethoxyphenyl)-2-(4-sulfophenyl)-2H-tetrazolium) assay. Cells were treated with free drug or prodrug nanoparticles, and in different concentrations in medium supplemented with 10% FBS and incubated for 72 hours.
The cytotoxicity of CP-prodrug nanoparticles made from sole CP-amphiphiles was evaluated in comparison to native CP in a CFPAC-1 pancreatic cell line.
(§2) The cell lines were exposed to media with varying concentrations of the treatments (100-0.2 μM) and incubated for 72 hours. Cell viability was determined using the MTS assay or crystal violate assay and was conducted in triplicate to derive the IC50 values.

The next data set concerns CACO2 cell line. Described as above. It counts as cell-based. The following applies: CACO2, 72 hours; prodrug tested as nanoparticles. The protocol: as §1, §2
A further data set relates to MCF7 cell line. The data set is described as above. It counts as cell-based. As to conditions: MCF7, 72 hours; prodrug tested as nanoparticles. The protocol: as §1, §2
Data set [2] in a line: Reduction kinetics of Pt (IV) prodrug nanoparticles with ascorbic acid (LC-MS). The data set is classed as in vitro ADME. As to conditions: prodrug nanoparticles 0.1 mM, 37° C. The protocol: The reducing agent was applied at concentrations corresponding to those found in the living cells' environment, e.g. 1 mM ascorbic acid or 2 mM glutathione (GSH).
Dispersed nanoparticles of Pt (IV) prodrug amphiphiles were mixed with GSH, ascorbic acid or their combination. The ratios of the reducing agents to platinum prodrugs were 10:1 or 50:1 for ascorbic acid and 20:1 for GSH. The reduction kinetics was analysed by LC-MS via monitoring the peaks related to each prodrug amphiphile. The prodrugs were detected by negative ions optimised for each platinum amphiphile. The reduction kinetics was plotted as the percentage of the area under the peak of Pt (IV)-prodrug compared to the peak before the addition of the reducing agent against the time of incubation. At each time point 10 μl of a sample withdrawn from the reaction solution was injected directly into a Phenomenex C8 150 mm×2 mm 5 μm Luna column (Phenomenex, Australia). A 100% Methanol solution was used as the mobile phase with a flow rate of 0.5 ml/min for 8 minutes. The sample after the column separation was eluted to the ESI source. […] The samples were well maintained at a temperature of 37° C. during the entire measurement by incubation in the temperature-controlled auto-sampler. Data was acquired and processed with Xcalibur Quan chromatography software.

The nature of data set [3]: Mesophase behaviour by polarized optical microscopy (POM). The following applies: 25° C. and 37° C. It counts as physicochemical. Here is the method:
Polarized Optical Microscopy (POM): Samples used for Polarized Optical Microscopy (POM) were prepared by placing a small amount of prodrug amphiphile on a microscope slide and covered with a cover slip. Water was placed on the edges of the cover slip and allowed to flow into the sample by capillary action. The microscope slide was placed in a Linkam PE94 hot stage (Linkam Scientific Instruments Ltd. Surrey, England) and heated at 3° C./min between room temperature and 50° C. […] Images were captured with a Nikon DS-Ri-1 camera. All images were taken at 100× magnification.
The formation of lyotropic mesophases is based on the interaction of the prodrug amphiphile with water. Polarized optical microscopy was used to study the liquid crystalline or crystalline structures of the prodrug amphiphiles. This method was used as a preliminary and qualitative investigation to observe the morphological changes of the amphiphile as well as to predict the structural changes of the mesophases which may form upon hydration with water. For each prodrug amphiphile, a small amount of the neat and dry sample was placed on a microscope slide and covered with a cover slip. Water was placed on the edges of the cover slip to allow to flow into the sample by capillary action. Images were captured at 25° C. before and after the addition of water and at 37° C. after exposure to water. 37° C. was selected due to its physiological relevance. […]

The test system of data set [4] is MIAPACA-2 (human pancreatic cancer) cell-derived xenograft. Nature of the data set: In vivo tumour inhibition, resistant MIAPACA-2 xenograft (tumour volume, body weight, kidney histopathology). Set-up: species or system NOD-SCID mice. The following applies: for histopathology of the kidney: 0.75 mg/Kg CP or equivalent, H & E sections. From the text: Subcutaneous xenografts were established by implanting 2-3×10^6 cells from cultures of CFPAC-1 or MIAPACA-2 human pancreatic cancer cell lines. Six-week-old male Nonbobese diabetic/severe combined immunodeficient (NOD/SCID) or nonobese diabetic/severe combined immunodeficient-gamma (NSG) mice were obtained from Animal Research Centre, Perth, Australia. These mice were acclimatised for one week in the Kearns Facility, Kolling Institute of Medical Research, the University of Sydney, following standard animal regulation and strict health controls allowing transfer between institutions. Animal care and housing was undertaken in accordance with institutional guidelines of Northern Sydney Local Health District (NSLHD) Animal Care & Ethics Committee (ACEC) (Protocol number 1011-015A).
Tumour growth was measured at least twice a week. When tumours were ˜40-100 mm3, the treatments were administered two times weekly by intraperitoneal injection (IP.) for control and gemcitabine alone groups, and intravenously (IV.) injection for nanoparticles groups for 4 weeks. At 30 days each experiment organs and tumours were harvested for analysis.
Tissue samples were fixed in 10% phosphate buffered formalin and embedded in paraffin. Formalin-fixed, paraffin embedded sections were cut 4-μm thick sections and stained with Mayer's hematoxylin and eosin (H & E). For immunohistochemistry, sections were incubated with the specific antibodies then using the Dako Envision+System-HRP labelled polymer detection kit (DaKo) according to manufacturers' protocol and counterstained with Mayer's hematoxylin and Scott's bluing solution. After mounting, sections were observed under a light microscope (ECLIPSE 80i; Nikon,
The evaluation of anticancer drugs in vivo is essential as it provides insight into the expected clinical outcomes of a drug. An in vivo evaluation of the anti-cancer efficacy of the CP-prodrug nanoparticles vs. CP was conducted on a resistant MIAPACA-2 (human pancreatic cancer) cell-derived xenograft in NOD-SCID mice. Five mice per group were used in the study and all treatments were administered via an IV injection twice a week for four weeks. The amount of CP administered in the free CP group was 0.75 mg/kg, where the nanoparticles made from CP-bis (suc-PEG3-Oleoyl) and stabilised with 30% PEG4K-oleoyl (FIG. 7b), contained 0.75 mg/kg of equivalent CP.

In data set [5] the test system is CFPAC-1 (human pancreatic cancer) cell line-derived xenograft. Nature of the data set: In vivo tumour inhibition by dual prodrug nanoparticles, CFPAC-1 xenograft. The following applies: twice a week for 4 weeks; NPs IV with 4.5 mg/Kg Gem (dual: + 1 mg/Kg CP) equivalent; Gemcitabine 100 mg/Kg IP. Set-up: species or system NOD-SCID gamma mouse (NSG).
Experimental: In another study a dual drug chemotherapeutic prodrug nanoparticle was employed to treat a CFPAC-1 (human pancreatic cancer) cell line-derived xenograft in NOD-SCID gamma mouse (NSG) over 28 days. […] The control groups were injected with the commercially available free Gemcitabine at 100 mg/Kg and PBS (vehicle control). Gemcitabine group were administered by intraperitoneal (IP) injection due to high toxicity of IV injection. 24 mice were used in this study, treating 6 mice/group.
Setting [6] is: 0.75 mg/kg CP or equivalent, IV twice a week for four weeks.

For orientation: IC50 means the concentration that inhibits the measured activity by half. Turning to “cis,cis,trans-(PtC12 (succinoyl-triethyleneglycoyl-oleoyl)2) [CP-bis(suc-PEG3-oleoyl)]”, the IC50 was determined as 5.1 µM in data set [1], 49 µM in the data set with CACO2 cell line and 28.2 µM in the data set on MCF7 cell line. Further, the “reduction rate at 5 mM versus 1 mM ascorbic acid” value in data set [2] is “slightly greater than 1 mM up to 4 h, however longer incubation time up to 7 h showed similar reduced prodrug at both concentrations”. Moreover, the “POM observation on exposure to water” value in data set [3] was “lamellar and emulsified bands (L2 or L3) mesophases”.
Take `N.N.[Cl][Pt][Cl]` [Cisplatin, Cis-diamminedichloroplatinum (II)]: the values for the IC50 (in data set [1]; with MCF7 cell line) were 3.6 µM and 11.5 µM, respectively. The “histopathology of the kidney” value was “sever pathological changes in the form of acute tubular necrosis, haemorrhage into many of the glomeruli and swelling of the capillaries” in data set [4] (listed as CP); “acute tubular necrosis” in data set [4] (listed as CP drug). Further, the “average increase of body weight at the conclusion of the experiment” value in data set [4] (setting [6]) is on record as 14%. Further, the “tumour growth inhibition (in words)” value in data set [4] (setting [6]) is “growth inhibition to control PBS group, but less than group treated with nanoparticle”.
For the compound `Nc1ccn([C@@H]2O[C@H](CO)[C@@H](O)C2(F)F)c(=O)n1` [Gemcitabine], the “tumour growth inhibition (in words)” value in data set [5] is on record as “significantly reduced the tumour volume; also recorded: reduced the size of tumour significantly better than other groups”.
